According to PubChem BioAssay (NCI):
Where “and” joins values, the source holds several entries; their conditions need not be identical. Equal values may be shown once.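 1) Cells in 96-well plates. 2) Compound, 48 h, 5 concentrations. 3) Linear interpolation between surrounding doses. 4) Unreached endpoint = highest concentration. GI50 is the concentration that inhibits growth by half. Definition used: TGI = concentration required for complete inhibition of growth.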

What was measured:
Assay in all cases: inhibition of tumour cell growth, NCI panel, 48 h
SW-620 colon = tested on: SW-620 colon
SN12C renal = tested on: SN12C renal
OVCAR-8 ovarian = tested on: OVCAR-8 ovarian
U251 CNS = tested on: U251 CNS
HT29 colon = tested on: HT29 colon
SK-OV-3 ovarian = tested on: SK-OV-3 ovarian
SNB-75 CNS = tested on: SNB-75 CNS
TK-10 renal = tested on: TK-10 renal
HCT-116 colon = tested on: HCT-116 colon
NCI-H226 lung = tested on: NCI-H226 lung

Row | Compound | TGI (SW-620 colon) [µM] | TGI (SN12C renal) [µM] | TGI (OVCAR-8 ovarian) [µM] | TGI (U251 CNS) [µM] | TGI (HT29 colon) [µM] | TGI (SK-OV-3 ovarian) [µM] | TGI (SNB-75 CNS) [µM] | TGI (TK-10 renal) [µM] | TGI (HCT-116 colon) [µM] | TGI (NCI-H226 lung) [µM] | GI50 (SW-620 colon) | GI50 (SN12C renal) | GI50 (U251 CNS) | GI50 (HCT-116 colon) | GI50 (HT29 colon) | GI50 (NCI-H226 lung) | GI50 (SK-OV-3 ovarian) | GI50 (SNB-75 CNS) | GI50 (TK-10 renal) [µM] | GI50 (OVCAR-8 ovarian)
1 | CCOC(=O)C1(C)CCCCC(=O)N1 (configuration not stated) | > 100 | > 100 | > 100 | > 100 | > 100 | > 100 | > 100 | > 100 |  |  |  |  |  |  |  |  |  |  |  | 
2 | CC(=O)OC1COC(n2c(=S)n(-c3ccccc3)c(=O)c3ccccc32)C(OC(C)=O)C1OC(C)=O (configuration not stated) | > 100 | > 100 | > 100 | > 100 | > 100 | > 100 | > 100 |  | > 100 | > 100 |  |  |  |  |  |  |  |  |  | 
3 | c1ccc2c(c1)cc1n2CC2CN=NC12 (configuration not stated) | > 100 | > 100 | > 100 | > 100 | > 100 | > 100 | > 100 |  | > 100 | > 100 |  |  |  |  |  |  |  |  |  | 
4 | CC(=O)NNc1nc(C)c(C(=O)NNC(=O)C(=O)Nc2ccc(Cl)cc2Cl)s1 | 50.2 | > 100 | > 100 | 82.6 | > 100 | > 100 |  | > 100 | > 100 | > 100 |  |  |  |  |  |  |  |  |  | 
5 | CN(C)C(=S)SCC(=O)Nc1ccccc1 | > 100 | > 100 | > 100 | > 100 | > 100 | > 100 | > 100 |  | > 100 | > 100 |  |  |  |  |  |  |  |  |  | 
6 | CC(SC(=O)Nc1ccc(N=Nc2ccccc2)cc1)C(=O)O (configuration not stated) | > 100 | > 100 | > 100 | > 100 | > 100 |  | 46.4 | > 100 | > 100 | > 100 |  |  |  |  |  |  |  |  |  | 
7 | CC(=O)C1=C(O)C2C3c4c[nH]c5cccc(c45)CC3C(C)(C)N2C1=O (configuration not stated) | > 100 |  |  | > 100 | > 100 | > 100 |  | > 100 |  | 71.4 |  |  |  |  |  |  |  |  |  | 
8 | CCOc1ccc(NC(=O)CC2C(=O)Nc3ccccc3S2(=O)=O)cc1 (configuration not stated) | > 100 | > 100 | > 100 | > 100 | > 100 |  | 43.2 | > 100 | > 100 | 90.3 |  |  |  |  |  |  |  |  |  | 
9 | NC(=O)NC1C(C(N)=O)N(Cc2ccccc2)C(=O)N1Cc1ccccc1 (configuration not stated) | > 100 |  | > 100 | > 100 | > 100 | > 100 | > 100 | > 100 | > 100 |  |  |  |  |  |  |  |  |  |  | 
10 | Cc1ccc(S(=O)(=O)N/N=C(/c2nc3ccc([N+](=O)[O-])cc3[nH]c2=O)C(O)c2ccc(C(O)/C(=N\NS(=O)(=O)c3ccc(C)cc3)c3nc4ccc([N+](=O)[O-])cc4[nH]c3=O)cc2)cc1 (configuration not stated) | > 100 |  | > 100 | > 100 | > 100 | > 100 | > 100 | > 100 | > 100 |  |  |  |  |  |  |  |  |  |  | 
11 | O=C1c2ccccc2C(=O)c2c(OCCOCCO)cccc21 | > 100 | 8.08 | > 100 | > 100 | > 100 | > 100 | > 100 | > 100 | > 100 |  |  |  |  |  |  |  |  |  |  | 
12 | CC(=O)NC(CC(C)C)C(=O)NC(Cc1ccccc1)C(=S)N1CCCC1 (configuration not stated) | > 100 | > 100 | > 100 | > 100 | > 100 | > 100 | > 100 | > 100 |  | > 100 |  |  |  |  |  |  |  |  |  | 
13 | CC(C)(C)C(C#N)(C#N)c1ccc(C(C#N)(C#N)C(C)(C)C)nn1 | > 100 | > 100 | > 100 |  | > 100 | > 100 | 75.2 | > 100 |  |  |  |  |  |  |  |  |  |  |  | 
14 | c1ccc2c3c([nH]c2c1)C(c1ccc(C2NCCc4c2[nH]c2ccccc42)cc1)NCC3 (configuration not stated) | 0.344 | 3.05 |  | 1.1 | 0.735 | 4.14 | 2.07 | 4.09 | 0.335 | 4.23 | 0.185 µM | 1.47 µM | 0.321 µM | 0.17 µM | 0.28 µM | 1.96 µM | 1.88 µM | 0.691 µM | 1.98 | 
15 | O=C(NNc1ccccc1)/C(=C/c1ccc2c(c1)OCO2)NC(=O)c1ccccc1 |  | > 100 | > 100 | > 100 | > 100 | > 100 | > 100 | > 100 | > 100 | > 100 |  |  |  |  |  |  |  |  |  | 
16 | CC[C@H](C)[C@H](NC(=O)[C@H]1CCCCN1C)C(=O)N(C)[C@H](C[C@@H](OC(C)=O)c1nc(C(=O)N[C@@H](Cc2ccccc2)C[C@H](C)C(=O)O)cs1)C(C)C | > 16.5 | > 16.5 | > 16.5 | > 16.5 | 0.002 |  | > 16.5 |  | 0.017 | < 0.00165 | 0.000332 µM and 0.00165 µM | 0.003 µM and 0.00165 µM | 0.000481 µM and 0.00165 µM | 0.000404 µM and 0.00165 µM | 0.000356 µM and 0.00165 µM | 0.0113 µM and < 0.00165 µM | 0.000807 µM and 0.00165 µM | 0.000568 µM and 0.00165 µM |  | 0.00297 µM and 0.00165 µM
17 | CN(C)CCNC(=O)c1cccc2c1Oc1c(cccc1[N+](=O)[O-])O2 | 10.2 | 3.72 | 16.5 | 10.4 | 5.78 |  | 3.96 | 6.08 | 3.4 | 0.92 |  |  |  |  |  |  |  |  |  | 
18 | COc1cc2c(=O)[nH]c3cc([N+](=O)[O-])ccc3c2cc1[N+](=O)[O-] | > 100 | > 100 | 88.1 |  | > 100 | 38.2 | 20 | > 100 | > 100 | 39.2 | 3.81 µM | 9.97 µM |  | 2.25 µM | 2.93 µM | 3.25 µM | 8.7 µM | 2.08 µM | 3.29 | 3.3 µM
19 | CCOC(=O)COc1ccc2c(C)cc(=O)oc2c1 | > 100 | > 100 | > 100 | > 100 | > 100 |  | > 100 |  | > 100 | > 100 |  |  |  |  |  |  |  |  |  | 
20 | CCN1CCN(C(=O)[C@]23CCC(C)(C)C[C@@H]2C2=CC[C@@H]4[C@@]5(C)C/C(=C/c6ccncc6)C(=O)C(C)(C)[C@@H]5CC[C@@]4(C)[C@]2(C)CC3)CC1 | 3.14 | 2.66 |  | 2.87 | 3.14 | 4.41 |  | 3.47 | 2.87 | 4.31 | 1.48 µM | 1.31 µM | 1.42 µM | 1.35 µM | 1.38 µM | 2 µM | 2.1 µM |  | 1.95 | 
21 | COc1cc2nc3cc([N+](=O)[O-])ccc3c(NCCNCC(C)(C)O)c2cc1OC | 4.07 |  | 4.48 | 2.31 | 1.4 | 6.51 | 2.05 | 5.43 | 1.54 | 4.05 | 0.54 µM |  | 0.533 µM | 0.368 µM | 0.327 µM | 1.28 µM | 2.01 µM | 0.608 µM | 1.7 | 0.769 µM
